Key:
Format in all cases: functional
P388 = experiment: Cytotoxicity against mouse P388 cells
A549 = experiment: Cytotoxicity against human A549 cells
HT-29 = experiment: Cytotoxicity against human HT29 cells
SK-MEL-28 = experiment: Cytotoxicity against human SK-MEL-28 cells

Measured: GI50

COC(=O)/C1=C\CC/C(C)=C/[C@@H]2OC(=O)C(C)=C2C[C@H](OC(C)=O)/C(C)=C/CC1
10 µM: all assays above

CC(C)=C1C=C2[C@@H](CC[C@@H]2C)[C@@H](C)CC1=O [GUAIACOPHINE]
10 µM: all assays above

COC(=O)[C@]12CC(=O)[C@H](C(C)C)CC(=O)[C@H](C)CCC[C@H](C)CC(=O)[C@H]1CC(C)=C1C[C@H](OC(C)=O)[C@](C)(O)[C@H]3CC[C@@](C)(O)[C@H](CC/C(C)=C/[C@@H]12)O3 [NYALOLIDE]
10 µM: all assays above

Source: ChEMBL document CHEMBL1148196, “Isoprenoids of the soft coral Sarcophyton glaucum: Nyalolide, a new biscembranoid, and other terpenoids” (2004)
